Laboratory results as given in PMC5984625, “Dynamic structural states of ClpB involved in its disaggregation function” (Nature Communications, 2018).

Molecular target: T1, ΔN-TClpB (Thermus thermophilus, UniProt Q9RA63)
T1 construct: gene clpB; N-terminal domain deletion (AAA1, M-domain and AAA2 kept); from plasmid pMCB1; expressed in E. coli BL21(DE3) or KRX; purified; hexamer and smaller oligomers
Assay: fluorescence displacement of mant-ADP
Details: per monomer; competitive binding model; 12.5 μM mant-ADP; Mg-ATP; pH 7.5, 20 mM KCl, 5 mM MgCl2, 25 °C; read-out: apparent Kd

T1 sequence (Q9RA63 141-854, stated change not applied): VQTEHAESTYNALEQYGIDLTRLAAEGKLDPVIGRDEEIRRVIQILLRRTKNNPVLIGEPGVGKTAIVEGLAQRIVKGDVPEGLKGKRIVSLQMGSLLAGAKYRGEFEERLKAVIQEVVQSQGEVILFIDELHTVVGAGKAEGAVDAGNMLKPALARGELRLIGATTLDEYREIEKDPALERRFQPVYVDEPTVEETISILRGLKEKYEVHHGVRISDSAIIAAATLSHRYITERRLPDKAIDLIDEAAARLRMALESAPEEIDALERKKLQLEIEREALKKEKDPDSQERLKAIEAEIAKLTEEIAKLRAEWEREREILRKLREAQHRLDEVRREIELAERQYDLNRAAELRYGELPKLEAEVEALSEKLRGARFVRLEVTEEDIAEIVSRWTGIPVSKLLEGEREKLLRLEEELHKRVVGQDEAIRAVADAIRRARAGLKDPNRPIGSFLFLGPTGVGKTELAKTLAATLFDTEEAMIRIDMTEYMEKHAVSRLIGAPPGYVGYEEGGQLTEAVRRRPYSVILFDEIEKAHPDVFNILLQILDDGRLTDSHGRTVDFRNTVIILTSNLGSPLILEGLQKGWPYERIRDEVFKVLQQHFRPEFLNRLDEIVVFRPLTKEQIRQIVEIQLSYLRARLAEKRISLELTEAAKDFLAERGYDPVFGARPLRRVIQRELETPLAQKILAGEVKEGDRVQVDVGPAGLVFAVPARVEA

Structure (SMILES): Nc1ncnc2c1ncn2[C@@H]1O[C@H](COP(=O)(O)OP(=O)(O)OP(=O)(O)O)[C@@H](O)[C@H]1O [ATP]
- Kd: 9.2 µM
